ChEMBL document CHEMBL3425477, “Compounds from the insect Blaps japanensis with COX-1 and COX-2 inhibitory activities” (Bioorg Med Chem Lett, 2015)

Key:
[1] = molecular target: T1, Prostaglandin G/H synthase 1 (Ovis aries, UniProt P05979); assay: Inhibition of ovine COX1 pre-incubated for 15 mins followed by addition of heme and fluorometric substrate and further incubated for 15 mins in presence of arachidonic acid by fluorescence based assay
T1 sequence (P05979 whole entry): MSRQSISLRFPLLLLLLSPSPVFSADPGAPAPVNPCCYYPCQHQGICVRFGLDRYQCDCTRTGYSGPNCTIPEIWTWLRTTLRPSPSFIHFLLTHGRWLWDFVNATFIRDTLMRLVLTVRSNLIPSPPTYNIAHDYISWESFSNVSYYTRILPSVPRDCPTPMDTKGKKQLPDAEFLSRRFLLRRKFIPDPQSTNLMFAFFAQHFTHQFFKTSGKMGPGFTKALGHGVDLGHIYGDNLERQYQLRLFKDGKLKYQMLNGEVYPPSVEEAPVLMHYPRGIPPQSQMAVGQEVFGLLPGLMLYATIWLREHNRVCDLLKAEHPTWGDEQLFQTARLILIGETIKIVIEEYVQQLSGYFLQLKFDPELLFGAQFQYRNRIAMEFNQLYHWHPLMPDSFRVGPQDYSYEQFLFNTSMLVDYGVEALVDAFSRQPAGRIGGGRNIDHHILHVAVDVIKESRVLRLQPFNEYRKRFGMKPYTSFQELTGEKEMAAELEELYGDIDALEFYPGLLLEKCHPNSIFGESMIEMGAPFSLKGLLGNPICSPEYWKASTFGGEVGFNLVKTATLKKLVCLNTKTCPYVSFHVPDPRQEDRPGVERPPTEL

[2] = molecular target: T2, Prostaglandin G/H synthase 2 (Homo sapiens, UniProt P35354); assay: Inhibition of human recombinant COX2 pre-incubated for 15 mins followed by addition of heme and fluorometric substrate and further incubated for 15 mins in presence of arachidonic acid by fluorescence based assay
T2 sequence (P35354 whole entry): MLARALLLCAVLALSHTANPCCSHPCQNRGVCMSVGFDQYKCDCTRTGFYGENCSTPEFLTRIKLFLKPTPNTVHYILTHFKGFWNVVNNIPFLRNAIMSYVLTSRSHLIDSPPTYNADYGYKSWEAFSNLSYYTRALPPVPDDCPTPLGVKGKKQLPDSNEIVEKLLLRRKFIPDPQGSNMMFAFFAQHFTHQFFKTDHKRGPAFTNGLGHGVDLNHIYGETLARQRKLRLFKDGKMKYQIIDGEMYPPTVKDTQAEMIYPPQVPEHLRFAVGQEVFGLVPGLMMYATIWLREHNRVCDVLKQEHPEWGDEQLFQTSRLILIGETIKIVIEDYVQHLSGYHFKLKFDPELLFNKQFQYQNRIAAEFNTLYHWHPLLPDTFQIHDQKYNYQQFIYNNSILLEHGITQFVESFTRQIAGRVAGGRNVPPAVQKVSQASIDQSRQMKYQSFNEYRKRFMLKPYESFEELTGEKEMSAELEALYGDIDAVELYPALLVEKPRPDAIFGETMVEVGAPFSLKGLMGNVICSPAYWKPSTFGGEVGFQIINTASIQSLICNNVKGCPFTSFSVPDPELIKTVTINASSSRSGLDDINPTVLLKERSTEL

SMILES	IC50 [1]	IC50 [2]	IC50 ([1]; read-out: IC50)
CCOC1(c2ccc(O)c(O)c2)Oc2ccc(CCO)cc2OC1O (stereo unspecified)	Not Active	6.04 µM	–
CCO[C@]1(c2ccc(O)c(O)c2)Oc2cc(CCO)ccc2O[C@H]1O	Not Active	8.6 µM	–
CO[C@]1(c2ccc(O)c(O)c2)Oc2cc(CCO)ccc2O[C@H]1O	Not Active	9.7 µM	–
CC(=O)NCCc1ccc2c(c1)O[C@H](NC(C)=O)[C@@H](c1ccc(O)c(O)c1)O2	Not Active	2.6 µM	–
CC(=O)/N=C/Cc1ccc2c(c1)O[C@H](c1ccc(O)c(O)c1)[C@@H](NC(C)=O)O2 (relative stereo)	–	2.7 µM	13.8 µM
CC(=O)N[C@H]1Oc2cc(CCO)ccc2O[C@@H]1c1ccc(O)c(O)c1 (relative stereo)	Not Active	1.3 µM	–
CO[C@]1(c2ccc(O)c(O)c2)Oc2ccc(CCO)cc2O[C@H]1O	Not Active	6.02 µM	–
CC(=O)N[C@H]1Oc2ccc(CCO)cc2O[C@@H]1c1ccc(O)c(O)c1 (relative stereo)	Not Active	2.5 µM	–
CCO[C@@]1(c2ccc(O)c(O)c2)Oc2ccc(CCO)cc2O[C@@H]1O	Not Active	2.52 µM	–
CCO[C@@]1(c2ccc(O)c(O)c2)Oc2cc(CCO)ccc2O[C@@H]1O	Not Active	13.7 µM	–
CC(=O)NCCc1ccc2c(c1)O[C@H](c1ccc(O)c(O)c1)[C@@H](NC(C)=O)O2 (relative stereo)	Not Active	3.6 µM	–
CO[C@@]1(c2ccc(O)c(O)c2)Oc2ccc(CCO)cc2O[C@@H]1O	Not Active	8.24 µM	–
CO[C@@]1(c2ccc(O)c(O)c2)Oc2cc(CCO)ccc2O[C@@H]1O	Not Active	17.8 µM	–
